The subject of assay [1] is CXCR4 on NK cells. The assay can be described thus: CXCR4 expression on IL-12+IL-15-activated NK cells, by flow cytometry. In kind it is cell-based. The note with it: overnight with IL-12p70 (20 ng/ml) and IL-15 (20 ng/ml), 200 μM CoCl2. The method, then:
Negatively Isolated (EasySep) NK cells were cultured overnight with NK cell activators, IL-12p70 (20 ng/ml) and IL-15 (20 ng/ml), in absence or presence of 200 μM CoCl2 (Hypoxia mimic; HIF1α activator). Absolute numbers (A) and percentage (B) of CXCR4 NK cells are calculated by flow cytometry and are depicted in the figure.
On the technique in general: Flow cytometry measures light scatter and fluorescence of single cells or particles in a stream.

The subject of assay [2] is CXCR4+/GZMB+ CD8+ T cells. The assay can be described thus: FACS staining for CXCR4 and GZMB in ex vivo induced CTLs exposed to a hypoxia mimic. In kind it is cell-based, human.
In assay [3] the test system is CXCL12-responsive GZMB+ CD8+ T cells. The assay is described as follows: Chemotaxis of GZMB+ CD8+ T cells to recombinant CXCL12 (transwell). The note with it: 50 ng/ml CXCL12; cells primed with CD3/CD28 + IL-12 or type-1 polarized DCs, then DMOG. In kind it is cell-based, human.

Entries after “also recorded” stand apart in the source; their conditions may differ.

As to `[Cl][Co][Cl]` [CoCl2, cobalt chloride], in assay [1], the “CXCR4 expression on NK cells (absolute numbers and percentage)” value is on record as “increases CXCR4 expression”.

On to `COC(=O)CNC(=O)C(=O)OC` [DMOG, dimethyloxalylglycine], for which the “CXCR4 expression (CXCR4+/GZMB+ double positive CD8+ T cells)” value in assay [2] (CD3-CD28 beads +/- IL-12 (5 ng/ml) 6 days or type-1 polarized DCs, then 3 days with 200 μM DMOG) is on record as “promote high levels of CXCR4; also recorded: increases CXCR4 expression”. Also, the “intracellular GZMB expression in arising effector cells” value in assay [2] (CD8+ T cells primed in type-1-polarizing conditions, DMOG) is given as “without affecting the intracellular GZMB expression”. The “responsiveness to CXCL12 (migration of GZMB+ CD8+ T cells)” value in assay [3] was “highest migration of GZMB^+ CTL; also recorded: increases CXCR4 expression and responsiveness to CXCL12”.
